Test results from patent US20180044343A1, “BICYCLIC IMIDAZOLO DERIVATIVE” (Sumitomo Dainippon Pharma Co., Ltd., priority 2015, published 2018).

How the values were obtained:
PDE1B [1] = biological target: T1, PDE1B (Homo sapiens, UniProt Q01064); experiment: In vitro HTRF PDE1 inhibition assay (PDE1B); format: biochemical; conditions: in vitro PDE1B HTRF Assay; read-out: IC50
PDE1A3 [2] = biological target: T2, PDE1A3 (Homo sapiens, UniProt P54750); experiment: In vitro HTRF PDE1 inhibition assay (PDE1A3); format: biochemical; conditions: PDE1A3, 100 nM cyclic GMP
Excerpt: (§1) An exemplary procedure for the in vitro Homogenous Time Resolved Fluorescence assay, which can be used to determine the inhibitory action of compounds of the present invention toward PDE1 or its isoforms, follows.
(§2) The HTRF PDE1 assay utilized the HTRF (Homogenous Time Resolved Fluorescence) technology, which is based on the competition between unlabeled cyclic nucleotide and cyclic nucleotide labeled with XL665 for the binding to cyclic nucleotide-specific antibody labeled with cryptate. The HTRF signal is thus inversely proportional to the concentration of cyclic nucleotide being measured. Since phosphodiesterases break down cyclic nucleotides, the HTRF signal was used to determine PDE activity.
(§3) The Cisbio cGMP HTRF assay kit (Cat no: 62GM2PEC) was utilized. Cyclic GMP was diluted to 200 nM in HTRF assay buffer (1 mM CaCl2, 10 mM MgCl2, 10 mM Tris-HCl, 0.1% BSA, pH 7.4). 10 μl of compound or DMSO was diluted in 200 nM cyclic GMP solution and added to wells of a 96 well white plate to give 100 nM cyclic GMP in 1% DMSO final concentration. PDE (1A3, 1B or 1C) was diluted to 2× working concentration in HTRF assay buffer with 2 μg/ml Calmodulin, and 10 μl was added to initiate the reaction. The plate was then incubated for 45 minutes at 27° C. d2-Labelled cyclic GMP and anti-cGMP cryptate were diluted in 50 mM phosphate buffer, 0.8 M KF, 1% Triton X100, 0.2% BSA, pH 7.0. Following incubation 10 μl d2-cGMP, then 10 μl anti cGMP cryptate were added to each well and the plate was incubated for 60 minutes at room temperature. The plate was then read on Perkin Elmer EnVision at 2 different FRET readings ex/em 340 nm/665 nm and 340 nm/615 nm.
(§4) Compounds having an IC50 of <1 μM are denoted as +++. Compounds having an IC50 of 1-10 μM are denoted as ++. Compounds having an IC50 of 10-100 μM are denoted as +.

PDE1C [3] = biological target: T3, PDE1C (Homo sapiens, UniProt Q14123); experiment: In vitro HTRF PDE1 inhibition assay (PDE1C); format: biochemical; conditions: 100 nM cyclic GMP
Excerpt: as §1, §2, §3, §4

PDE1B [4] = biological target: T1, PDE1B; experiment: In vitro SPA PDE1 inhibition assay (PDE1B); format: biochemical; conditions: [3H]-cGMP 100 nM
Experimental: (§5) The commercially available Scintillation Proximity Assay (SPA) system (Perkinelmer) was used for PDE1 inhibition assays. SPA Yttrium Silicate beads preferentially binds to non-cyclic GMP compared to cyclic GMP (cGMP) in the presence of zinc sulphate, which enables to measure the amount of enzyme reaction product ([^3H]-GMP) by scintillation counting.
(§6) For PDE1 inhibition assay, 10 μl of the test compounds in 5% dimethyl sulfoxide diluted in SPA assay buffer (1 mM CaCl2, 10 mM MgSO4, 10 mM Tris-HCl, pH 7.4) were placed in a 96-well white microtiter plate, and 20 μl of [^3H]-cGMP solution (100 nM final concentration, Perkinelmer) in SPA assay buffer was added. Assays were initiated by adding 20 μl of PDE (1A3, 1B or 1C) enzyme solution including calmodulin (final concentration 1 μg/ml). After 30 min incubation at 27° C., the reaction was stopped by the addition of 50 μl of a suspension of 10 mg/ml SPA beads in 18 mM ZnSO4. The microtiter plates were settled for 60 min, and then were measured in a TopCount NXT scintillation counter (PerkinElmer). IC50 values were determined from sigmoidal curves by plotting the percentage of PDE activity versus log compound concentration. IC50 was defined as the concentration of the test compounds required to inhibit the cyclic nucleotide hydrolyzing activities of tested PDEs by 50%.

PDE1A3 [5] = biological target: T2, PDE1A3; experiment: In vitro SPA PDE1 inhibition assay (PDE1A3); format: biochemical; conditions: PDE1A3, [3H]-cGMP 100 nM
Experimental: as §5, §6

PDE1C [6] = biological target: T3, PDE1C; experiment: In vitro SPA PDE1 inhibition assay (PDE1C); format: biochemical; conditions: [3H]-cGMP 100 nM
Experimental: as §5, §6

[7] = Evaluation of bioavailability, PK test in rats; format: in vivo; conditions: rat; 7 week-old SD rats, intravenous vs oral administration, plasma LC-MS
Experimental: This test can be used to assess pharmacokinetics of the compounds of the present invention. Each compound of the invention was administered to 7 week-old SD rats intravenously with a solution in saline: 0.1N HCl=9:1 or orally with a 0.5% suspension in methyl cellulose, and each blood sample was collected at an appropriate interval as follows:
5, 15, and 30 minutes, and 1, 2, 4, 6, and 24 hours after intravenous administration
15 and 30 minutes, and 1, 2, 4, 6, and 24 hours after oral administration
The plasma was obtained from each blood, and the concentration of each compound in the plasma was measured with an LC-MS to calculate each pharmacokinetic parameter based on the concentration change.

[8] = Test for drug transportation to brain in rats; format: in vivo; conditions: rat; SD rats, oral, one hour after administration; non-binding drug concentration ratio between brain and plasma
Excerpt: Test for Drug Transportation to Brain in Rats
This test can be used to assess transportation of the compounds of the present invention to the brain. Each compound of the invention was orally administered to 7 week-old SD rats with a 0.5% suspension in methyl cellulose, and each plasma and brain were collected one hour after administration to measure the concentration of each compound in the plasma and the brain with an LC-MS.
Each protein binding ratio of the compounds in the plasma and the brain was measured by the equilibrium dialysis method.
The obtained concentrations and protein binding ratios of the compounds in the plasma and the brain can be applied to the following equation to calculate Kp, uu, brain (i.e., non-binding drug concentration ratio between brain and plasma).
Kp, uu, brain=[Compound concentration in brain×(100−Protein binding ratio in brain (%))/100]/[Compound concentration in plasma×(100−Protein binding ratio in plasma (%))/100]

[9] = test system: cognitive dysfunction in PCP-treated rats; experiment: Novel object recognition test in rats repeatedly treated with phencyclidine (PCP); format: in vivo; conditions: rats given PCP 3 mg/kg i.p. twice a day for 10 days; compound 1 or 3 mg/kg orally 60 minutes before test; compared to PCP+vehicle group
Experimental: Since an N-Methyl-D-aspartate receptor antagonist phencyclidine (PCP) has been known to cause schizophrenia-like symptoms including cognitive dysfunction in humans, PCP-treated animals have been widely used as a schizophrenic animal model. Using rats to which PCP was repeatedly administered as a schizophrenic animal model, the improvement in cognitive dysfunction with the compounds of the invention was evaluated in the novel object recognition test. Rats were habituated to the test environment which is a box (50 cm×50 cm×35 cm) with no object inside for 1 hour per day for 3 days. On the test day, rats were again put into the test box with no object inside to habituate themselves for three minutes. The rats were then put into the test box with two identical objects inside and were made to explore inside for three minutes for a training trial. After one minute, they were put into the test box with one of the objects (i.e., the familiar object) that was the same as used in the training trial and another object (i.e., a novel object) inside and were made to explore inside for three minutes for a test trial. Cognitive function was evaluated on the basis of preference for the novel object in the test trial utilizing rats' habit of exploring a novel object longer than a familiar object. Discrimination Index was calculated from the following equation as an index for preference of a novel object.
Discrimination Index=(Time to explore novel object−Time to explore familiar object)/(Time to explore novel object+Time to explore familiar object)

T1 sequence (Q01064 whole entry): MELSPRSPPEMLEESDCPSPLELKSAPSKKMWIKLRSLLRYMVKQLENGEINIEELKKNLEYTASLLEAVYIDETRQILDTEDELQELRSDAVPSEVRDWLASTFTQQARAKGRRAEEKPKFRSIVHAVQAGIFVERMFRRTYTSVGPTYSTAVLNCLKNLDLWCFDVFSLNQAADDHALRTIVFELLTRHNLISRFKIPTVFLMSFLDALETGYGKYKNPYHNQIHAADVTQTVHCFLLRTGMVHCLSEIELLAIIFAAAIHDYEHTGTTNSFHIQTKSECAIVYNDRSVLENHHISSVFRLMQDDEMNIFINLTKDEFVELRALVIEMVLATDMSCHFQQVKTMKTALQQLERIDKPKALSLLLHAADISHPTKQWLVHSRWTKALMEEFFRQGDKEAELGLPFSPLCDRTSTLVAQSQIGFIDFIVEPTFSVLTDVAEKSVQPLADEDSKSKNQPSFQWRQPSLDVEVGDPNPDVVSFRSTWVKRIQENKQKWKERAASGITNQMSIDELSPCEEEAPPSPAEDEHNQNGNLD

IC50 (PDE1B [1])	IC50 (PDE1A3 [2])	IC50 (PDE1C [3])	IC50 (PDE1B [4])	IC50 (PDE1A3 [5])	IC50 (PDE1C [6])	bioavailability [7]	Kp uu at 1 h [8]	SMILES	Discrimination Index in novel object recognition test [9]
< 1000 nM	< 1 µM	< 1 µM	0.088 µM	0.22 µM	0.665 µM	23.3%	0.69	CCn1c(OCC2CCC(F)(F)CC2)nn2c(C3CCOCC3)ncc2c1=O [Example 1]	significant increase
< 1000 nM	< 1 µM	< 1 µM	0.033 µM	0.034 µM	0.065 µM	13.4%	0.96	COc1nn2c(C3CCOCC3)ncc2c(=O)n1CC1CCC(F)(F)CC1 [Example 115, 3-[(4,4-difluorocyclohexyl)methyl]-2-methoxy-7-(tetrahydro-2H-pyran-4-yl)imidazo[5,1-][1,2,4]triazin-4(3H)-one]	significant increase
< 1000 nM	< 1 µM	< 1 µM	0.051 µM	0.144 µM	0.425 µM	55.6%	0.3	CC(C)c1ncc2c(=O)n(C)c(NCc3ccc(Cl)cn3)nn12 [Example 149, 2-{[(5-chloropyridin-2-yl)methyl]amino}-3-methyl-7-(propan-2-yl)imidazo[5,1-f][1,2,4]triazin-4(3H)-one]	significant increase
< 1000 nM	< 1 µM	< 1 µM	0.036 µM	0.113 µM	0.547 µM	30.4%	0.72	Cn1c(OC[C@H]2CC[C@H](C(F)(F)F)CC2)nn2c(C3CCOCC3)ncc2c1=O [Example 245, 3-methyl-7-(tetrahydro-2H-pyran-4-yl)-2-{[trans-4-(trifluoromethyl)cyclohexyl]methoxy}-imidazo[5,1-][1,2,4]triazin-4(3H)-one]	significant increase
< 1000 nM	< 1 µM	< 1 µM	0.023 µM	0.08 µM	0.276 µM	54.5%	0.61	CCOC[C@H]1CC[C@H](COc2nn3c(C4CCOCC4)ncc3c(=O)n2C)CC1 [Example 288, 2-{[trans-4-(ethoxymethyl)cyclohexyl]methoxy}-3-methyl-7-(tetrahydro-2H-pyran-4-yl)-imidazo[5,1-][1,2,4]triazin-4(3H)-one]	significant increase
